Our source for the IC50, Ki and inhibition values is ChEMBL document CHEMBL1759928, “Synthesis and evaluation of library of betulin derivatives against the botulinum neurotoxin A protease” (Bioorg Med Chem Lett, 2011).

The target of test [1] is Botulinum neurotoxin type A (Clostridium botulinum, UniProt P0DPI0). Kind of test: Inhibition of Clostridium BoNT/A protease light chain.
Test [2] has as its target Botulinum neurotoxin type A (Clostridium botulinum) (UniProt P0DPI0). The conditions noted are these: 0.67 to 18 uM.

As usually defined, the IC50 is the concentration that inhibits the measured activity by half. High values mean lower potency, low ones higher potency. What is called Ki is the equilibrium dissociation constant of an inhibitor or competing ligand from its target. Low values mean higher affinity, high ones lower affinity.

Activity calls are given as the source filed them. No cut-off for these calls is given here.

Chain of Botulinum neurotoxin type A (P0DPI0 2-448 limits assumed): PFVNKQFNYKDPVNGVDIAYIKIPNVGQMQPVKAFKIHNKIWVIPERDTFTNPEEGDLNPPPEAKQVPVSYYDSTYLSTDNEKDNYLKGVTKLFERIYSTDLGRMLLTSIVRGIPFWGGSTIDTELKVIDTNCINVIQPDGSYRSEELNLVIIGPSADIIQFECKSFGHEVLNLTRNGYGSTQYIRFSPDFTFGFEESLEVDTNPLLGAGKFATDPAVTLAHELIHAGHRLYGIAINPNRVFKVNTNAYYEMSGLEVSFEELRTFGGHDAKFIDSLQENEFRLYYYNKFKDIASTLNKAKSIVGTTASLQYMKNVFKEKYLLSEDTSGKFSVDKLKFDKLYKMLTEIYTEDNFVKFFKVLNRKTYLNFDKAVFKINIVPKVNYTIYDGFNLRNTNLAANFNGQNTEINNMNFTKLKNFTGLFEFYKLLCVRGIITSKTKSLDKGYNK
Chain of Botulinum neurotoxin type A (Clostridium botulinum) (P0DPI0 2-448 limits assumed): as above

For the molecule `C=C(C)[C@@H]1CC[C@]2(C(=O)O)CC[C@]3(C)[C@H](CC[C@@H]4[C@@]5(C)CCC(=O)C(C)(C)[C@@H]5CC[C@]43C)[C@@H]12` [BETUNOLIC ACID], the IC50 in test [1] was less than 100 µM.
In test [1], `C=C(C)[C@@H]1CC[C@]2(C(=O)O)CC[C@]3(C)[C@H](CC[C@@H]4[C@@]5(C)CC[C@H](O)C(C)(C)[C@@H]5CC[C@]43C)[C@@H]12` [BETULINIC ACID] had an IC50 of 20 µM and a Ki of 14.3 µM.
As for `C=C(C)[C@@H]1CC[C@]2(COC(=O)COc3cc(C(C)C)ccc3C)CC[C@]3(C)[C@H](CC[C@@H]4[C@@]5(C)CC[C@H](O)C(C)(C)[C@@H]5CC[C@]43C)[C@@H]12`, in test [1], inhibition was half-maximal at 10 µM (IC50) and the Ki was found to be 13.3 µM.
As to `C=C(C)[C@@H]1CC[C@]2(C(=O)OC)CC[C@]3(C)[C@H](CC[C@@H]4[C@@]5(C)CC[C@H](O)C(C)(C)[C@@H]5CC[C@]43C)[C@@H]12` [METHYL BETULINATE], the IC50 in test [1] was less than 100 µM.
Consider `C=C(C)[C@@H]1CC[C@]2(COC(=O)CCC(=O)O)CC[C@]3(C)[C@H](CC[C@@H]4[C@@]5(C)CC[C@H](O)C(C)(C)[C@@H]5CC[C@]43C)[C@@H]12`, for which, in test [1], it took 1.5 µM to reach half-maximal inhibition (IC50) and the affinity, expressed as Ki, was 0.8 µM. In test [2], the inhibition result was “Active”.
